Measurements reported in EP2111858A1, “Novel treatment for alzheimer's disease” (EPFL Ecole Polytechnique Fédérale de Lausanne, priority 2008, dated 2009).

test system: α- and β-secretase cleavage of APP; assay: Western blot of intracellular APP-C99 and APP-C83 in rat primary neurons exposed to NMDAR modulators; type: cell-based; settings: 15 DIV, compared to the untreated control, NMDA, D-serine 30µM for 3 minutes, memantine 30µM for 16 hours, DAPT 1 µM for 16 hours
Description: Neuronal cultures and treatments. Cortical and hippocampal neurons were cultured as described^27 from postnatal day 0 rats or mice and all treatments described bellow carried out at 15 days in vitro (DIV). Stimulations with 30µM N-methyl-D-aspartate (NMDA, Tocris), 30µM D-serine (the D isoform of the amino acid serine, Sigma), or a combination of NMDA + D-serine (30µM each) were carried out for 3 minutes and neurons transferred into trophically enriched medium and further incubated for 16 hours. Treatments with 30µM 1-amino-3,5-dimethyladamantane (memantine, Lucerna-Chem), 1 µM N-[N-(3,5-difluorophenacetyl)-L-alanyl]-S-phenylgly cine t-butyl ester (DAPT, ), and 1 µM phorbol 12-myristate 13-acetate (PMA, Sigma) were carried out for 16 hours. Pre-treatments with 1 µM TAPI-1 (Calbiochem), 1 µM GL189 (Calbiochem), 1,2-bis(o-aminophenoxy)ethane-N,N,N',N'-tetraacetic acid (BAPTA, Sigma), H-89, chelerythrine, or KN-62 (Biaffin GmbH & Co KG) were carried out for 1 hour. Next, neurons were treated (or not) with NMDA or NMDA + D-serine as described above, and cells transferred into trophically enriched medium and incubated for additional 15 hours. Whole cell lysates were prepared for Western blot analysis as described below.
Western blotting and antibodies. Cells were washed with cold phosphate-bufferd saline containing 2 mM EDTA and homogenized in 50 mM Tris-HCL pH 7.4, 350 mM NaCl, 100 mM DTT, 0.1% SDS, 0.5% NP-40 and a cocktail of protease inhibitors (Roche Diagnostics). Protein whole cell extracts were separated on 4-12% Bis-tris gels (Invitrogen) and transferred onto nitrocellulose membranes to detect APP-FL, APP-C99, APP-C83 and AICD (CT15, Sigma), sAPPα (6E10, Signet), Notch-FL and NICD (Sigma), ADAM10 (Calbiochem), ADAM17 (Calbiochem), BACE1 (EE17, Sigma), NCT (NCT164, BD Bioscience), PS1-FL and PS1-NTF (MAB1536, Chemicon International), Pen-2 (UD-1, 1:500, a gift of Helena Karlström), and β-Action (Sigma).

Compound	intracellular accumulation of APP-C99 and APP-C83
N[C@H](CO)C(=O)O [D-serine]	did not affect the production of APP-C99/APP-C83
CC12CC3CC(C)(C1)CC(N)(C3)C2 [memantine, 1-amino-3,5-dimethyladamantane]	triggered the accumulation of APP-C83
C[C@H](NC(=O)Cc1cc(F)cc(F)c1)C(=O)N[C@H](C(=O)OC(C)(C)C)c1ccccc1 [DAPT, N-[N-(3,5-difluorophenacetyl)-L-alanyl]-S-phenylglycine t-butyl ester]	increased levels of both APP-C83 and APP-C99
